Experiments:
Cyp24 = assay: RT-PCR of Cyp24 control gene in treated ST2 cells; format: cell-based, mouse; conditions: up to 24 hours
Procedure: (§1) FIG. 2. Induction of RANKL in ST2 cells by hormones and cytokines. ST2 cells were treated with the agents indicated for periods up to 24 hours. Total RNA was isolated and subjected to RT-PCR using a primer set to mouse RANKL and beta-actin. Positive vitamin D target control genes include Cyp24 and osteopontin (OPN).
(§2) The inventors first established a model in which RANKL is both induced in response to 1,25(OH)2D3, PTH (forskolin) and oncostatin M (OSM), and is capable of supporting osteoclast formation when co-cultured with bone marrow monocyte- or spleen cell-derived osteoclast precursors. While a number of cell types express RANKL and induce osteoclastogenesis, the historical literature strongly supports mouse ST2 cells in this capacity, prompting the inventors to focus on this stromal/preosteoblastic line for initial studies. […] Each of these components is known to both induce RANKL expression and promote osteoclast formation as well. […] Indeed, GC effects are widely observed. […] The ability of GCs to enhance osteoclast formation in coculture assays in the presence of 1,25(OH)2D3, however, is likely due also to its coordinate ability to suppress OPG.

osteopontin (OPN) = assay: RT-PCR of osteopontin control gene in treated ST2 cells; format: cell-based, mouse; conditions: up to 24 hours
Procedure: as §1, §2

minimal RANKL promoter = assay: Mouse RANKL minimal promoter (-100 to +65) in pGL3, ST2 cells; format: cell-based; conditions: pGL3, without D5 insert
Description: FIG. 9. The mouse RANKL D5 region is active in the context of the mouse RANKL gene minimal promoter. Mouse RL D5 was inserted upstream of a mouse RANKL gene promoter fragment (−100 to +65) in pGL3 and its inducible activity assessed in ST2 cells. […] Data are the average of triplicate determinations, SEM.
The activity of an enhancer must be evaluated in the context of its local environment, preferentially in the context of both other enhancers and its native promoter. In the case of the RANKL gene, however, this is clearly not possible due to the numbers and the distant locations of the potential regulatory regions. To tackle this problem, the inventors isolated approximately 800 to 1100 bp fragments of each region (D1 to D5) as identified through the ChIP/Chip analysis, cloned each into a luciferase expression vector under the control of a viral thymidine kinase (TK) minimal promoter, and explored the 1,25(OH)2D3- and GC-inducible activity of each following transfection into ST2 cells. […] Nevertheless, positive results provide added support for the potential regulatory capabilities of an individual DNA fragment even when examined in isolation. […] To ensure that the viral TK promoter background was not contributing to our evaluation, the inventors cloned the mouse RANKL promoter (−100 to +65) into pGL3, inserted RL D5 and evaluated its activity in ST2 cells as well.

RANKL = assay: RT-PCR of RANKL in MG-63 cells; format: cell-based, human
Procedure: FIG. 14. […] Cells were treated with the indicated inducers for the periods identified and isolated RNA subjected to PCR analysis for Cyp24, RANKL and b-actin. B) 1,25(OH)2D3 induces VDR binding to the conserved D5 region of the human RANKL gene in MG-63 cells. […] Two different primer sets to the human D5 region were used to assess VDR binding. VDR binding was also observed at D3-D1 but not in intervening regions or at the TSS. C) The human D5 region is transcriptionally active in MG-63 cells. […] Luciferase activity was analysed 24 hours later. […] Data are the average of triplicate determinations, SEM.
The isolated RNA was then subjected to RT-PCR analysis using primers to a control gene (β-actin), a known vitamin D induced gene (Cyp24) and RANKL. […] These and additional data using other hormonal regulators are identical to that observed in mouse cells and it therefore appears likely that human RANKL is regulated in a fashion similar to that in mouse.

## C=C1/C(=C\C=C2/CCC[C@]3(C)[C@@H]([C@H](C)CCCC(C)(C)O)CC[C@@H]23)C[C@@H](O)C[C@@H]1O [1,25(OH)2D3]
Cyp24
  Cyp24 induction: induced in a time-dependent manner
Osteopontin (OPN)
  osteopontin (OPN) induction: induced in a time-dependent manner
Minimal RANKL promoter
  response of minimal RANKL promoter: unresponsive
RANKL
  RANKL expression (RT-PCR): upregulated
